Measurements reported in patent US7314958B2, “Phenylbenzamides” (Bayer CropScience AG, priority 2002, dated 2008).

Legend:
Format in all cases: in vivo
Botrytis cinerea = assay: Botrytis test (bean)/protective; settings: protective, application rate 500 g/ha, evaluation 2 days after inoculation
Protocol: Botrytis Test (Bean)/Protective • Solvent: 49 parts by weight of N,N-dimethylformamide • Emulsifier: 1 part by weight of alkylaryl polyglycol ether To produce a suitable preparation of active compound, 1 part by weight of active compound is mixed with the stated amounts of solvent and emulsifier, and the concentrate is diluted with water to the desired concentration. To test for protective activity, young plants are sprayed with the preparation of active compound at the stated application rate. After the spray coating has dried on, 2 small pieces of agar colonized by Botrytis cinerea are placed onto each leaf. The inoculated plants are placed in a dark chamber at about 20° C. and 100% relative atmospheric humidity. 2 days after the inoculation, the size of the infected areas on the leaves is evaluated. 0% means an efficacy which corresponds to that of the control, whereas an efficacy of 100% means that no infection is observed.

Alternaria solani = assay: Alternaria test (tomato)/protective; settings: protective, application rate 750 g/ha, evaluation 7 days after inoculation
[1] = system: Erysiphe graminis f. sp. hordei; assay: Erysiphe test (barley)/protective; settings: protective, application rate 750 g/ha, evaluation 7 days after inoculation

In the case of `CC(C)CC(C)c1ccccc1NC(=O)c1ccccc1I` (centres unmarked) [drawing 15], the Efficacy in % (Botrytis cinerea) is reported as 93%.
`CC(C)CC(C)c1ccccc1NC(=O)c1ccccc1C(F)(F)F` (centres unmarked) [drawing 16] was tested, and the Efficacy in % (Alternaria solani) was 100%.
With `CC(C)CC(C)c1ccccc1NC(=O)c1ccccc1I` (centres unmarked) [drawing 17] the Efficacy in % (Alternaria solani) was 100%.
Molecule `CC(C)CC(C)c1ccccc1NC(=O)c1ccccc1C(F)(F)F` (centres unmarked) [drawing 18] has an Efficacy in % [1] of 95%.
Work on `CC(C)CC(C)c1ccccc1NC(=O)c1ccccc1I` (centres unmarked) [drawing 19] yielded an Efficacy in % [1] of 95%.
